{"source": "paper PMC11637483", "about": "“Dissecting caspase-2-mediated cell death: from intrinsic PIDDosome activation to chemical modulation” (Protein & Cell, 2024)", "key": {"[1]": {"system": "HeLa-CASP2/CASP3/GSDMD TKO + CASP2 cells (human caspase-2)", "experiment": "ATP-based cell viability (CellTiter-Glo) in HeLa TKO cells with exogenous caspase-2 expression", "settings": "for EC50: Homo sapiens, HeLa, ATP-based viability, HeLa TKO cells with exogenous caspase-2, titrated compound", "text": "Specific chemical compounds are powerful tools for dissecting target-related signaling mechanisms in biological contexts ([Beck et al., 2022]; [Zhang et al., 2012]). Prompted by this notion and possibly to identify a compound that could activate the PIDDosome, we designed a cell death-based high-throughput chemical screen in HeLa cells, in which a triple knockout of CASP2, CASP3, and GSDMD were constructed. CASP3 and GSDMD deficiency served as the background to minimize compound-induced nonspecific cytotoxicity and undesired pyroptosis. Using the triple knockout cells as the control, additional expression of exogenous caspase-2 allows the identification of compounds that can specifically activate the caspase-2-BID pathway and trigger apoptosis through caspase-7. […] In accordance with the apoptosis induction, HUHS015 induced evident processing of caspase-2 expressed in the triple-knockout cells (Fig. 3B). This indicated activation of caspase-2 as the protease-deficient C320A mutant of caspase-2 was not processed upon HUHS015 treatment (Fig. 3B). Accordingly, expression of caspase-2 C320A rendered no cell death in response to HUHS015 treatment (Fig. 3B).\nFigure 3. Chemical screen identifies HUHS015 as an agonist of human caspase-2. (A) Screen raw data and selectivity analyses of the compound plate containing HUHS015. The ATP-based viability data of both HeLa-CASP2^−/−CASP3^−/−GSDMD^−/− (TKO) (control group) and TKO cells with exogenous caspase-2 expression (experimental group) are shown. The ratios of the cell viability between the two groups are calculated with 3 as a cutoff for positive compound hit selection. (B) HUHS015-induced cell death depends on caspase-2 activity. HeLa TKO cells expressing WT or enzymatically deficient C320A mutant of caspase-2 were treated with HUHS015. ATP-based cell viability and immunoblotting of caspase-2 cleavage are shown. (C and F) The structures and potencies of HUHS15 (C) and its optimized derivative HUHS15-036 (F). HeLa TKO cells with exogenous caspase-2 expression were treated with titrated compounds. The ATP-based viability data were plotted with compound concentration for EC50 calculation. (D) BID is required for HUHS15-induced caspase-2-dependent cell death. […] Processing of caspase-2, -3, and -7 was analyzed by immunoblotting. […] ATP-based cell viability in panels (B and D) is expressed as mean ± s.d. from three technical replicates. […]\nCell viability was measured by the ATP assay using the CellTiter-Glo® Luminescent Cell Viability Assay kit (Promega).\nDrug-related Screening Library (25 × 384-well plate, more than 7,000 compounds) was used for the chemical screen in the TKO HeLa cells rescued with exogenous caspase-2 expression. […] After treatment for 12 h, the cell viability was measured by the ATP assay. […]"}, "[2]": {"system": "caspase-2-expressing HeLa cells with BID, RAIDD or PIDD1 knockout", "experiment": "Compound-induced caspase-2 activation and cell death in pathway-gene knockout HeLa cells", "type": "cell-based, human", "method": "Figure 3. Chemical screen identifies HUHS015 as an agonist of human caspase-2. (A) Screen raw data and selectivity analyses of the compound plate containing HUHS015. The ATP-based viability data of both HeLa-CASP2^−/−CASP3^−/−GSDMD^−/− (TKO) (control group) and TKO cells with exogenous caspase-2 expression (experimental group) are shown. The ratios of the cell viability between the two groups are calculated with 3 as a cutoff for positive compound hit selection. (B) HUHS015-induced cell death depends on caspase-2 activity. HeLa TKO cells expressing WT or enzymatically deficient C320A mutant of caspase-2 were treated with HUHS015. ATP-based cell viability and immunoblotting of caspase-2 cleavage are shown. (C and F) The structures and potencies of HUHS15 (C) and its optimized derivative HUHS15-036 (F). HeLa TKO cells with exogenous caspase-2 expression were treated with titrated compounds. The ATP-based viability data were plotted with compound concentration for EC50 calculation. (D) BID is required for HUHS15-induced caspase-2-dependent cell death. WT and BID^−/− (KO) HeLa TKO cells with exogenous caspase-2 expression, as well as the knockout cells rescued with WT or D60E mutant of BID were treated with HUHS15. ATP-based cell viability and immunoblotting detecting caspase-2 and BID processing are shown. (E) HUHS15-induced caspase-3/7 activation relies on caspase-9 but is independent of PIDDosome. CASP2^−/− (KO) HeLa cells with exogenous caspase-2 expression in the indicated knockout background were treated with HUHS15. Processing of caspase-2, -3, and -7 was analyzed by immunoblotting. (G) Top gRNA hits from the genetic screen of HUHS015-36-induced apoptosis in HeLa TKO cells with exogenous caspase-2 expression. In all the data, indicated cells were treated with the compound for 5 h (for HUHS015-36) or 9 h (for HUHS015) before cell viability measurement and immunoblotting analyses. ATP-based cell viability in panels (B and D) is expressed as mean ± s.d. from three technical replicates. Data in panels (B–F) are representative of three independent experiments. […]"}}, "note": "Read-outs that look alike come from different tables or passages of the source.", "data": [{"smiles": "Cc1cccc2nc(-n3nc4c(c3O)CCCC4)[nH]c12", "note": "[HUHS015-36]", "values": [{"measurement": "EC50", "setting": "[1]; read-out: EC50, caspase-2-mediated cell death", "result": 0.06, "unit": "µM"}, {"measurement": "treated cells that underwent apoptosis", "setting": "[1]; pool of CRISPR-Cas9 mutagenized caspase-2-expressing TKO HeLa cells, genetic screen", "result": "Over 95%"}, {"measurement": "caspase-2 activation and cell death", "setting": "[2]; PIDD1 or RAIDD knockout, 5 h", "result": "neither PIDD1 nor RAIDD deficiency had any effects"}]}, {"smiles": "Cc1ccc2nc(-n3nc(C)c(Cc4ccccc4)c3O)[nH]c2c1", "note": "[HUHS015]", "values": [{"measurement": "EC50", "setting": "[1]; read-out: EC50 (half-maximal effective concentration), caspase-2-mediated cell death", "result": "~6.8", "unit": "µM"}, {"measurement": "cell death", "setting": "[2]; BID knockout", "result": "diminished"}, {"measurement": "caspase-2 processing and caspase-3/7 activation", "setting": "[2]; RAIDD knockout", "result": "could still induce caspase-2 processing as well as caspase-3/7 activation"}]}]}
